# Experiments:
# [1] = molecular target: T1, UDP-3-O-acyl-N-acetylglucosamine deacetylase (Pseudomonas aeruginosa (strain ATCC 15692 / PAO1 / 1C / PRS 101 / LMG12228), UniProt P47205); assay: Inhibition of Pseudomonas aeruginosa LpxC using UDP-3-O-(R-hydroxydecanoyl)-N-acetylglucosamine incubated for 30 mins prior to substrate addition measured after 60 mins by mass spectrophotometry
# T1 sequence (P47205 whole entry): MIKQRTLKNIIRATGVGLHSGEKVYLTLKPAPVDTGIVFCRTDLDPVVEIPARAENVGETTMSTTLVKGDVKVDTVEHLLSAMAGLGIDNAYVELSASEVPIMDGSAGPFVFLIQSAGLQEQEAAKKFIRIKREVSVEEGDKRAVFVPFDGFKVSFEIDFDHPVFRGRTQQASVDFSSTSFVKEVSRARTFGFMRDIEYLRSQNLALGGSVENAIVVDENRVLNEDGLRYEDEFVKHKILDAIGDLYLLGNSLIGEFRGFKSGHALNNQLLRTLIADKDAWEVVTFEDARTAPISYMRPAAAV
# Pseudomonas aeruginosa [2] = assay: Antibacterial activity against Pseudomonas aeruginosa PAO1 after 16 to 20 hrs by broth microdilution method; assay type: functional
# Staphylococcus aureus = assay: Antibacterial activity against Staphylococcus aureus ATCC 29213 after 16 to 20 hrs by broth microdilution method; assay type: functional
# Pseudomonas aeruginosa [3] = assay: Antibacterial activity against Pseudomonas aeruginosa after 16 to 20 hrs by broth microdilution method; assay type: functional
# Klebsiella pneumoniae = assay: Antibacterial activity against Klebsiella pneumoniae after 16 to 20 hrs by broth microdilution method; assay type: functional
# Escherichia coli = assay: Antibacterial activity against Escherichia coli after 16 to 20 hrs by broth microdilution method; assay type: functional
# Klebsiella aerogenes = assay: Antibacterial activity against Enterobacter aerogenes after 16 to 20 hrs by broth microdilution method; assay type: functional
# Citrobacter freundii = assay: Antibacterial activity against Citrobacter freundii after 16 to 20 hrs by broth microdilution method; assay type: functional
# Acinetobacter baumannii = assay: Antibacterial activity against Acinetobacter baumannii after 16 to 20 hrs by broth microdilution method; assay type: functional
# [4] = Clearance in rat at 10 mg/kg, iv; assay type: ADME, organism-based; set-up: dose 10 mg/kg, route intravenous; conditions: in vivo
# [5] = Volume of distribution at steady state in rat at 10 mg/kg, iv; assay type: ADME, organism-based; set-up: dose 10 mg/kg, route intravenous; conditions: in vivo, read-out: Vdss
# [6] = AUC in rat at 10 mg/kg, iv; assay type: ADME, organism-based; set-up: dose 10 mg/kg, route intravenous; conditions: plasma
# [7] = Half life in rat at 10 mg/kg, iv; assay type: ADME, organism-based; set-up: dose 10 mg/kg, route intravenous; conditions: in vivo
# Pseudomonas aeruginosa [8] = assay: Antibacterial activity against Pseudomonas aeruginosa clinical isolates after 16 to 20 hrs by broth microdilution method; assay type: functional
Compound,IC50 [1] [nM],MIC (Pseudomonas aeruginosa [2]) [µg/mL],MIC (Staphylococcus aureus) [µg/mL],also measured
O=C(NO)C1(CCc2ccc(-c3ccccc3)cc2)CCCS1(=O)=O (racemic),> 92.5,> 64,64,
C[C@@](CCc1ccc(-c2ccc3c(c2)OCO3)cc1)(C(=O)NO)S(C)(=O)=O,1.2,0.125,> 64,MIC90 (Pseudomonas aeruginosa [3]): 1 µg/mL; MIC90 (Klebsiella pneumoniae): 4 µg/mL; MIC90 (Escherichia coli): 0.5 µg/mL; MIC90 (Klebsiella aerogenes): 1 µg/mL; MIC90 (Citrobacter freundii): 2 µg/mL; MIC90 (Acinetobacter baumannii): > 64 µg/mL
C[C@](CCc1ccc(-c2ccccc2)cc1)(C(=O)NO)S(C)(=O)=O,,> 64,> 64,
C[C@@](CCc1ccc(-c2ccc(C(=O)O)cc2)cc1)(C(=O)NO)S(C)(=O)=O,73.6,64,> 64,
CC(CCc1ccc(-c2ccccc2)cc1)(C(=O)NO)S(=O)(=O)c1ccccc1 (racemic),> 67.9,64,32,
C[C@@](CCc1ccc(-c2ccc(C#N)cc2)cc1)(C(=O)NO)S(C)(=O)=O,0.64,0.125,> 64,MIC90 (Pseudomonas aeruginosa [3]): 1 µg/mL; MIC90 (Klebsiella pneumoniae): 2 µg/mL; MIC90 (Escherichia coli): 0.5 µg/mL; MIC90 (Klebsiella aerogenes): 1 µg/mL; MIC90 (Citrobacter freundii): 2 µg/mL; MIC90 (Acinetobacter baumannii): 16 µg/mL; clearance [4]: 53 mL/min/kg; Vd [5]: 1.4 L/kg; AUC [6]: 3100 ng·h/mL; half-life [7]: 0.6 h
C[C@@](CCc1ccc(-c2ccc(OCCCC(=O)O)cc2)cc1)(C(=O)NO)S(C)(=O)=O,21.2,8,> 64,
CC(CCc1ccc(-c2ccc(OCCCN)cc2)cc1)(C(=O)NO)S(C)(=O)=O (racemic),12.7,2,> 64,
C[C@@](CCc1ccc(-c2ccccc2F)cc1)(C(=O)NO)S(C)(=O)=O,1.36,0.125,32,
CCc1ccccc1-c1ccc(CC[C@](C)(C(=O)NO)S(C)(=O)=O)cc1,26.1,8,32,
C[C@@H](O)[C@H](NC(=O)c1ccc(C#Cc2ccc(CN3CCOCC3)cc2)cc1)C(=O)NO,,1,> 64,MIC90 (Pseudomonas aeruginosa [3]): 4 µg/mL; MIC90 (Klebsiella pneumoniae): 2 µg/mL; MIC90 (Escherichia coli): 0.25 µg/mL; MIC90 (Klebsiella aerogenes): 0.5 µg/mL; MIC90 (Citrobacter freundii): 0.5 µg/mL; MIC90 (Acinetobacter baumannii): > 64 µg/mL
C[C@@](CCc1ccc(-c2ccc(Cl)cc2)cc1)(C(=O)NO)S(C)(=O)=O,< 1.05,0.5,16,
POLYMYXIN B,,,,MIC50 (Pseudomonas aeruginosa [8]): 0.5 µg/mL; MIC90 (Pseudomonas aeruginosa [8]): 1 µg/mL
CC(CCc1ccc(-c2ccc(OCCCNC(=N)N)cc2)cc1)(C(=O)NO)S(C)(=O)=O (racemic),9.49,32,32,
CC(CS(=O)(=O)c1ccc(-c2ccccc2)cc1)(C(=O)NO)S(C)(=O)=O (racemic),11.9,4,> 64,
C[C@@](CCc1ccc(-c2ccc(O)cc2)cc1)(C(=O)NO)S(C)(=O)=O,3.68,0.5,> 64,MIC90 (Pseudomonas aeruginosa [3]): 2 µg/mL; MIC90 (Klebsiella pneumoniae): 16 µg/mL; MIC90 (Escherichia coli): 4 µg/mL; MIC90 (Klebsiella aerogenes): 16 µg/mL; MIC90 (Citrobacter freundii): 8 µg/mL; MIC90 (Acinetobacter baumannii): > 64 µg/mL; clearance [4]: 65 mL/min/kg; Vd [5]: 2.6 L/kg; AUC [6]: 2500 ng·h/mL; half-life [7]: 1.4 h; MIC50 (Pseudomonas aeruginosa [8]): 1 µg/mL; MIC90 (Pseudomonas aeruginosa [8]): 4 µg/mL
NCC[C@H](O)C(=O)N[C@@H]1C[C@H](N)[C@@H](O[C@H]2O[C@H](CN)[C@@H](O)[C@H](O)[C@H]2O)[C@H](O)[C@H]1O[C@H]1O[C@H](CO)[C@@H](O)[C@H](N)[C@H]1O [AMIKACIN],,,,MIC50 (Pseudomonas aeruginosa [8]): 4 µg/mL; MIC90 (Pseudomonas aeruginosa [8]): 32 µg/mL
COc1ccc(CCC(C)(C(=O)NO)S(C)(=O)=O)cc1 (racemic),> 100,16,> 64,
CS(=O)(=O)C(CCc1ccc(-c2ccccc2)cc1)C(=O)NO (racemic),13.8,1,> 64,
C[C@@](CCc1ccc(-c2cccnc2)cc1)(C(=O)NO)S(C)(=O)=O,29.7,4,> 64,
C[C@@](CCc1ccc(Sc2ccccc2)cc1)(C(=O)NO)S(C)(=O)=O,30.4,4,64,
